According to patent US12178846B2, “Methods of using gap junctions as therapeutic targets for the treatment of degenerative disorders of the retina” (The Research Foundation for The State University of New York, priority 2014, dated 2024):
Entries after “also recorded” stand apart in the source; their conditions may differ.

What was measured:
GJs = test: Retrograde Neurobiotin labeling of amacrine cells coupled to RGCs; assay type: cell-based, mouse
Description: After experimental treatment, retinas were fixed with 4% paraformaldehyde in a 0.1 M phosphate buffer solution (PBS; pH 7.4) for 30 minutes at room temperature, cryoprotected in 30% sucrose, embedded in Tissue-Tek OCT Compound (Andwin Scientific) and frozen. Cryosections (18-20 μm thick) were cut and mounted on microscope slides. For immunostaining, sections were blocked in 3% donkey serum in 0.1M PBS supplemented with 0.5% Triton X-100, and 0.1% NaN3 for 1 h at room temperature. Primary antibodies were diluted in 0.1M PBS with 0.5% Triton X-100, 0.1% NaN3 and 1% donkey or goat serum. Tissues were then incubated with primary antibodies for 3 hours at room temperature or overnight at 4° C. The following primary antibodies were used: rabbit anti-calretinin 1:2000, rabbit anti-calbindin 1:1000, goat ant-ChAT 1:100 (all from Millipore), rabbit anti-GFAP 1:1000 (Invitrogen), rabbit anti-active caspase 3 1:200 (Abcam); mouse anti-Cx35/36 1:300, mouse anti-Cx45 1:300 (both from Millipore). After extensive washing with 0.1M PBS, tissues were incubated for 1 hour in secondary anti-goat/rabbit/mouse antibodies conjugated to Alexa-488 or Alexa-594 (1:200, Molecular Probes). Retinal sections were counterstained with the nuclear dye propidium iodide (PI, Molecular Probes). Neurobiotin was visualized with Alexa-488/594 conjugated streptavidin (Molecular Probes, 1:200). Tissues were then flat-mounted in Vectashield media (Vector Labs) and fluorescent images were taken using a fluorescent microscope or an Olympus FV1200 MPE confocal microscope.
We used retrograde labeling of RGCs with Neurobiotin to visualize populations of amacrine cells in the inner nuclear layer (INL) to which they were coupled. Globes with attached optic nerves were submersed in oxygenated Ames medium and a drop of Neurobiotin (4% in 0.1 M Tris buffer) was applied to the cut optic nerve for 40 minutes. For retrograde labeling limited to RGCs, Neurobiotin was replaced with Lucifer yellow (LY, 3%). […]

[1] = system: amacrine cells in the INL; test: NMDA-induced excitotoxic loss of amacrine cell subpopulations in the INL; assay type: cell-based, mouse
Description: Various methods were employed to produce cell death. (1) Single cell apoptosis: CytC was injected into individual RGCs or Müller cells for 15 minutes after which retinas were incubated for 4 hours in oxygenated Ames medium before fixation. […] Both control and drug-treated retinas were then exposed for 1 hour to NMDA (100-300 μM) to induce excitotoxicity followed by 4 hours in the control Ames solution. (3) Retinal ischemia: Transient in vivo retinal ischemia was induced by introducing into the anterior chamber a 33-gauge needle attached to a saline-filled reservoir (0.9% sodium chloride) that was raised above the animal so as to increase intraocular pressure (IOP) to a level […]. MFA (2 μl, 500 μM) was administered intravitreally either 30 minutes before or 3 and 24 hours following the ischemic insult. The opposite eye was cannulated, but maintained at normal IOP to serve as a normotensive control. After 40-50 minutes, the needle was withdrawn and ischemia was evidenced by corneal whitening. After 7 days of reperfusion, mice were sacrificed and eyes were processed to assess retinal damage and neuronal death. […]
In some experiments, cells counts were limited to retrograde labeled RGCs in the GCL or certain subpopulation of amacrine cells, identified by specific markers, such as calretinin (CR), calbindin (CB) and choline acetyltransferase (ChAT) in the INL. Fluorescence intensity measures were made of glial fibrillary acidic protein (GFAP), which is overexpressed in Müller glial cells following retinal injury. Expression of GFAP and connexins were quantified by analysis of confocal images with Metavue software (Molecular Devices). Average pixel fluorescence intensities were measured by using uniform rectangular areas (3-5 per image) extending either from the GCL to the outer limiting membrane for GFAP or through the IPL for connexins. […]

[2] = system: RGCs in microbead-injected eyes; test: Microbead-induced experimental glaucoma; assay type: in vivo, mouse
Description: Experimental glaucoma in mice is induced by IOP elevation achieved by intracameral injections of 10 μm polystyrene microbeads (Invitrogen) as previously described (Chen H, et al., Invest Ophthalmol Vis Sci. 52:36-44 (2011)). The intracameral injections are made unilaterally with 2 μl of microbead suspension containing ˜7.2×106 beads using a glass micropipette attached to a microliter syringe. An equivalent volume of phosphate-buffered saline (PBS) is injected in contralateral eyes to serve as a control. Measurements of IOP are made with the commercially-available Tonolab tonometer (Colonial Medical Supply) and are performed weekly for up to 8 weeks after the microbeads injection. Measurements are made between […] and 12 PM, to minimize the effect of diurnal IOP variations. Six IOP measurements are made at each interval and averaged. Experimental glaucoma was induced by intracameral injections of polystyrene microbeads (Chen H, et al., Invest Ophthalmol Vis Sci. 52:36-44 (2011)) in one eye of wild type (WT) mice, connexin knockout (KO) mice and their […] (HET) control littermates, with sham injection of the second eye as control. IOP measurements were performed weekly and animals were sacrificed at 1, 4, or 8 weeks after initial bead injection. To access cell loss, RGCs and coupled ACs were retrogradely labeled with optic nerve injection of Neurobiotin and vertical retinal sections were counterstained with DAPI to determine overall nuclear counts. RGCs were also labeled by Brn3a antibody for identification. In addition to cell counts, overall retinal damage was assessed by GFAP expression. In some experiments gap junctions were blocked with meclofenamic acid (MFA) intravitreal weekly injections or genetically ablated in connexin KO mice (Cx36^−/−, Cx45^−/−, and Cx36^−/−/Cx45^−/− mice). Data are presented as mean±standard mean error. […] Statistical comparisons were assessed using Student's t-test. […]

[3] = MFA 50 μM 30 min, NMDA 300 μM 1 h, p<0.01

## Cc1ccc(Cl)c(Nc2ccccc2C(=O)O)c1Cl [MFA, meclofenamic acid]
GJs; MFA application, p>0.1
  number of ChAT-positive ACs labeled with Neurobiotin: did not produce a significant reduction; also recorded: little effect
GJs; MFA prior to retrograde labeling, p<0.01
  Neurobiotin labeling of CR-positive ACs in the INL (coupling to RGCs): effectively eliminated all colocalized labeling; also recorded: significantly reduced
GJs; MFA-treated retinas vs control, p>0.1
  total number of CR-IR cells in the INL (per 500 μm section): comparable to that in control
[1]; [3]
  number of CB-immunolabeled ACs in the INL: prevented the loss; also recorded: prevented such reduction
  number of CR-immunolabeled ACs in the INL: prevented the loss; also recorded: prevented reduction
[1]; MFA, NMDA-induced excitotoxicity, p>0.1
  number of ChAT-positive ACs in the INL: nor was this affected
[2]; MFA (50 μM) before and after bead injection, 8 weeks, control 50±1, untreated bead-injected 33±1, p>0.1 vs control
  RGC cell counts: 47±4
[2]; injection of MFA alone in control eyes
  RGC counts, MFA alone: no detectable effect
[2]; intravitreal MFA, microbead-injected eyes, 8 weeks
  loss of cells (RGC+dAC) in the GCL: prevents loss of cells in GCL
